# From patent publication US6641571B2, “Reduction of postoperative complications of cardiopulmonary bypass (CPB) surgery” (Ed. Geistlich Soehne AG fuer Chemische Industrie, priority 2000, dated 2003)
# Columns and labels:
# Type in all cases: in vivo, human
# TNF-α = test: Randomized clinical trial in CPB patients: circulating TNF-α by ELISA; conditions: perioperative taurolidine
# Procedure: (§1) A randomized prospective clinical trial was performed. Thirty-four consecutive patients with an ejection fraction >30%, undergoing elective coronary artery bypass grafting were randomized into four groups. Groups A and B received taurolidine (250 mL 2% taurolidine) intravenously at induction through a central line. These patients also received two further doses of taurolidine at 12 hour intervals (2×250 mL 2% taurolidine/day) for the first 24 hours following surgery, but in group A crystalloid cardioplegia was used for myocardial protection and in group B blood cardioplegia was used. Groups C and D received saline vehicle controls while group C had crystalloid cardioplegia and group D received blood cardioplegia. Blood samples were taken pre-operatively, at the time of aortic unclamping, 2 hours, 6 hours and 24 hours post aortic unclamping. Neutrophil and monocyte respiratory burst, phagocytosis ability, CD11b and CD14 expression were assessed using flow cytometry. Plasma interleukins 6, 8 and 10 (IL-6, IL-8 and IL-10) and tumor necrosis factor α (TNF-α) were determined by Enzyme Linked Immuno Sorbent Assay. All the patients received the standard antibiotic prophylaxis for cardiac bypass surgery.
# (§2) Patient selection was performed as follows. […]
# (§3) Parameters 2-4 were assessed post aortic unclamping, 2 hours and 24 hours post-operatively.
# IL-10 = test: Randomized clinical trial in CPB patients: IL-10 level by ELISA
# Procedure: as §1
# (§4) Patient selection was performed as follows. Patients undergoing elective coronary artery bypass grafting with an ejection fraction greater than or equal to 30%, no history of Diabetes mellitis and a normal chest x-ray were selected. Patients on ACE-inhibitors were not included in the study. The decision was made jointly by the consultant anesthetist and surgeon involved before inclusion in the study, and each patient was then randomized to drug or control. All the patients were nursed in the cardiac intensive care unit post operatively. Informed consent was sought from each patient before inclusion into the study.
# as §3
# (§5) Thirty-four patients were studied as described above.
# IL-8 = test: Randomized clinical trial in CPB patients: circulating IL-8 by ELISA; conditions: perioperative taurolidine
# Procedure: as §1, §2, §3
# IL-6 = test: Randomized clinical trial in CPB patients: IL-6 level by ELISA
# Procedure: as §1, §4, §3, §5
# [1] = tested on: arrhythmia in CPB patients; test: Arrhythmia in CPB patients during crystalloid cardioplegia; conditions: of ten patients; crystalloid cardioplegia with taurolidine 2% solution (placebo: 8 of ten)
# Source text: Ten patients underwent CPB using crystalloid cardioplegia with taurolidine 2% solution for myocardial protection. Another ten patients underwent CPB using crystalloid cardioplegia and a placebo for myocardial protection. Three of the patients treated with taurolidine experienced arrhythmia whereas 8 of the patients treated with placebo experienced arrhythmia.
# [2] = tested on: neutrophil and monocyte activity (respiratory burst, phagocytosis, CD11b, CD14); test: Randomized clinical trial in CPB patients: neutrophil and monocyte activity by flow cytometry; conditions: perioperative taurolidine
# Procedure: as §1, §2, §3
# [3] = 24 hours post aortic unclamping, crystalloid cardioplegia (Group A, n = 8), 250 mL 2% taurolidine i.v., mean ± s.d., *p < 0.05 vs. placebo
# [4] = Group A vs. Group B, p<0.05 at 24 hours post aortic unclamping
# [5] = crystalloid cardioplegia, Group A vs. Group C, 24 hour timepoint
smiles,measurement,setting,value
"O=S1(=O)CCN(CN2CCS(=O)(=O)NC2)CN1 [Taurolidine, bis(1,1-dioxoperhydro-1,2,4-thiadiazin-4-yl)methane]",Effect on circulating TNF-α,TNF-α,did not appear to modify
same,Serum IL-10 level,IL-10; [3],28.2 ± 9.6* pg/mL
same,"Interleukin-10, crystalloid vs. blood cardioplegia in taurolidine patients",IL-10; [4],significantly up-regulated
same,Interleukin-10 vs. placebo (in words),IL-10; [5],significantly up-regulated
same,Effect on circulating IL-8,IL-8,did not appear to modify
same,Serum IL-6 level,IL-6; [3],8.0 ± 1.4* pg/mL
same,"Interleukin-6, crystalloid vs. blood cardioplegia in taurolidine patients",IL-6; [4],significantly down-regulated
same,Effect on interleukin-6 in combination with blood cardioplegia,"IL-6; blood cardioplegia, Group B vs. Group D",No beneficial effect
same,Interleukin-6 vs. placebo (in words),IL-6; [5],significantly down-regulated
same,Number of patients who experienced arrhythmia,[1],Three
same,Effect on neutrophil or monocyte activity,[2],did not appear to modify
